The numbers were not newly measured in patent publication US20230149268A1, “MULTI-PHASE COSMETIC COMPOSITION COMPRISING AT LEAST TWO IMMISCIBLE OILY PHASES” (CHANEL PARFUMS BEAUTE, priority 2020, published 2023), which cites them from elsewhere.

Structures are written as SMILES.

The conditions of this data set: Table 1, known values, fatty acids.
As for `CCCCCCCCCCCCCCCCCCCCCCCC(=O)O` [Lignoceric acid C24:0, Lignoceric acid], the δd was 16.1, the δh is reported as 3.9 and the δp was 2.4.
For the compound `CCCCCCCC/C=C\CCCCCCCCCCCC(=O)O` [Erucic acid C22:1, Erucic acid], the δd is 16.3, the δh is recorded as 4.5 and the δp is reported as 2.6.
Consider `CCCCC/C=C\C/C=C\CCCCCCCC(=O)O` [Linoleic acid C18:2, Linoleic acid], for which the δd is recorded as 16.7, the δh is reported as 6.1 and the δp is on record as 3.1.
For the compound `CCCCCCCCCCCCCCCCCC(=O)O` [Stearic acid C18:0, Stearic acid], the δd was 16.2, the δh was 5.2 and the δp is 2.8.
Regarding `CCCCCCCC(=O)O` [Caprylic acid C8:0, Caprylic acid], the δd was 16.3, the δh is given as 10.1 and the δp is recorded as 5.2.
Turning to `CCCCCCCCCCCCCCCCCCCC(=O)O` [Arachidic acid C20:0, Arachidic acid], the δd is 16.1, the δh is 4.7 and the δp was 2.7.
Turning to `CCCCCCCC/C=C\CCCCCCCC(=O)O` [Oleic acid C18:1, Oleic acid], the δd is reported as 16.4, the δh was 5.5 and the δp is given as 3.
For `CCCCCC/C=C\CCCCCCCC(=O)O` [Palmitoleic acid C16:1, Palmitoleic acid], the δd is on record as 16.5, the δh was 6.3 and the δp is 3.4.
`CCCCCCCCCC/C=C\CCCCCCCC(=O)O` [Gadoleic acid C20:1, Gadoleic acid]: the δd is listed as 16.4, the δh is reported as 5.1 and the δp is given as 2.9.
With `CCCCCCCCCCCCCCCCC(=O)O` [Margaric acid C17:0, Margaric acid], the δd was 16.2, the δh is listed as 5.4 and the δp is 2.8.
Turning to `CCCCCCCCCCCCCCCCCCCCCC(=O)O` [Behenic acid C22:0, Behenic acid], the δd was 16.2, the δh is 4.3 and the δp is recorded as 2.3.
For `CCCCCCCCCCCCCCCC(=O)O` [Palmitic acid C16:0, Palmitic acid], the δd is 16.2, the δh is recorded as 5.8 and the δp is listed as 3.3.
As to `CCCCCC[C@@H](O)C/C=C\CCCCCCCC(=O)O` [Ricinoleic acid], the δd is listed as 16.5, the δh is 8.2 and the δp is recorded as 4.4.
Consider `CCCCCCCCCC(=O)O` [Capric acid C10:0, Capric acid], for which the δd was 16.3, the δh was 8.6 and the δp is given as 4.2.
`CCCCCCCCCCCCCC(=O)O` [Myristic acid C14:0, Myristic acid]: the δd is given as 16.3, the δh is reported as 6.6 and the δp is 3.3.
As to `CCCCCCCCCCCC(=O)O` [Lauric acid C12:0, Lauric acid], the δd is recorded as 16.3, the δh is reported as 7.5 and the δp is listed as 4.
